According to patent publication EP3046573B1, “AMYLIN ANALOGUES” (Zealand Pharma A/S, priority 2013, dated 2015):
Like-named read-outs stand apart in the source and are kept apart here. Numbered stars: 1 amine (or outer) side, 2 acyl side, 3 side chain; on linkers, the order of the positions; unused ones are H or OH. Bridge positions count the residues as written; N and C are the ends. Square brackets hold non-standard residues; d marks the D form. Peptide text beside a SMILES is read from it. * marks the point of attachment. C20 diacid = O=C(O)CCCCCCCCCCCCCCCCCCC(=O)*; γGlu = O=C(O)[C@H](CCC(=O)[*:2])N[*:1]; NMeI = CC[C@H](C)[C@H](NC)C(=O)O; Sar = CNCC(=O)O

Tests used:
[1] = molecular target: T1, human calcitonin receptor (hCTR2) (Homo sapiens, UniProt P30988); test: hCTR2 assay: induction of cAMP (AlphaScreen cAMP Assay kit) in COS7 cells expressing hCTR2; type: cell-based; conditions: cAMP induction in COS7 cells expressing hCTR2; average of a minimum of 3 determinations; read-out: hCTR2 EC50
T1 construct: expressed in transfected cells
T1 sequence (P30988 25-474): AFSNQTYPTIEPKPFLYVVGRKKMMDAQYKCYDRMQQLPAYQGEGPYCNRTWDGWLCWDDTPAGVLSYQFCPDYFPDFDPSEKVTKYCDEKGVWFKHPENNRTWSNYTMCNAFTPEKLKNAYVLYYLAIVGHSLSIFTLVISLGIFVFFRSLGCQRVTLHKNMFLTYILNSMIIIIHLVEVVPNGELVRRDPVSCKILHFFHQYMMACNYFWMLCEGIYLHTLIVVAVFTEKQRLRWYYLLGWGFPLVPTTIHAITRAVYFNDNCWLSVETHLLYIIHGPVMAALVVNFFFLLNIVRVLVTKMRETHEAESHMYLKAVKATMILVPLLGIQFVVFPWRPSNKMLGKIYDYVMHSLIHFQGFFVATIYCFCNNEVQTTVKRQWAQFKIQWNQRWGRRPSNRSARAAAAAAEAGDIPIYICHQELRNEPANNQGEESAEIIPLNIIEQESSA
Summary of the method: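 Stable hCTR2 clone in RAMP-naive COS7 cells; peptides titrated in Tyrode buffer (pH 7.4) with 100 µM IBMX, 0.1% casein, 15 min at 37° C. cAMP read by AlphaScreen after lysis; EC50 and efficacy relative to pramlintide from 4PL fit.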

[2] = molecular target: T2, human amylin receptor 3 (hAMYR3) consisting of hCTR2 co-expressed with human Receptor Activity Modifying Protein 3 (hRAMP3) (Homo sapiens, UniProt O60896+P30988); test: hAMYR3 assay: induction of cAMP (AlphaScreen cAMP Assay kit) in COS7 cells expressing hAMYR3; type: cell-based
T2 construct: expressed in transfected cells
T2 sequence (P30988 25-474): T1 sequence (P30988 25-474)
T2 sequence (O60896 24-148 partner): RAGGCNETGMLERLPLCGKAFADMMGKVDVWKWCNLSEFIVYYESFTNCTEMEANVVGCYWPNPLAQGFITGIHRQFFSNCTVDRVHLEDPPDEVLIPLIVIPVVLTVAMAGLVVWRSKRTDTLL
Summary of the method: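 Stable COS7 clone co-expressing hCTR2 and hRAMP3, stimulated 15 min at 37° C with increasing peptide in Tyrode buffer pH 7.4 with 100 µM IBMX and 0.1% casein. cAMP measured by AlphaScreen after lysis; EC50 and % efficacy versus pramlintide from 4PL fit.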

[3] = Solubility assessment (turbidity absorbance at 325 nm); type: physicochemical; conditions: stock 2 mg/ml diluted 1:1, ambient temperature (typically 25°C), n=1; for Solubility, Acetate buffer pH 4: 100 mM acetate buffer pH 4.0; for Solubility, Acetate buffer pH 5: 100 mM acetate buffer pH 5.0; for Solubility, Histidine buffer pH 6: 100 mM histidine buffer pH 6.0; for Solubility, Histidine buffer pH 7: 100 mM histidine buffer pH 7.0; for Solubility, Phosphate buffer pH 6: 100 mM phosphate buffer pH 6.0; for Solubility, Phosphate buffer pH 7: 100 mM phosphate buffer pH 7.0; for Solubility, Phosphate buffer pH 7.5: 100 mM phosphate buffer pH7.5
Summary of the method: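 Stock 2 mg/ml peptide, H2O/HCl pH 2.5; 1:1 into 100 mM buffers: acetate pH 4.0/5.0, His pH 6.0/7.0, phosphate pH 6.0/7.0/7.5. A280 + A325, ~25°C, n=1. Soluble ≥ 1 mg/ml if A325 ≤ 0.02.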

[4] = cAMP induction in COS7 cells expressing hAMYR3, average of a minimum of 3 determinations, read-out: hAMY R3 EC50

Row | EC50 [1] [nM] | Solubility, Acetate buffer pH 4 [3] | Solubility, Acetate buffer pH 5 [3] | Solubility, Histidine buffer pH 6 [3] | Solubility, Histidine buffer pH 7 [3] | Solubility, Phosphate buffer pH 6 [3] | Solubility, Phosphate buffer pH 7 [3] | Solubility, Phosphate buffer pH 7.5 [3] | EC50 [2, 4] [nM] | SMILES | EC50 [2] [nM]
1 | 0.22 | SS (SS indicates solubility ≥ 1mg/ml) | SS (SS indicates solubility ≥ 1mg/ml) | SS (SS indicates solubility ≥ 1mg/ml) | SS (SS indicates solubility ≥ 1mg/ml) | SS (SS indicates solubility ≥ 1mg/ml) | SS (SS indicates solubility ≥ 1mg/ml) | SS (SS indicates solubility ≥ 1mg/ml) | 0.35 | CC[C@H](C)[C@@H](C(=O)N[C@@H](CC(C)C)C(=O)N[C@@H](CO)C(=O)N[C@@H](CO)C(=O)N[C@H](C(=O)N[C@@H](CCC(=O)O)C(=O)N[C@H](C(=O)NCC(=O)N[C@@H](CO)C(=O)N[C@@H](CCC(=O)O)C(=O)N[C@H](C(=O)N1CCC[C@H]1C(N)=O)[C@@H](C)O)C(C)C)[C@@H](C)O)N(C)C(=O)[C@H](C)NC(=O)CN(C)C(=O)[C@H](Cc1ccccc1)NC(=O)[C@H](CO)NC(=O)[C@H](CO)NC(=O)[C@H](CO)NC(=O)[C@H](CO)NC(=O)[C@H](CCCNC(=N)N)NC(=O)[C@H](Cc1c[nH]cn1)NC(=O)[C@H](CC(C)C)NC(=O)[C@H](Cc1ccccc1)NC(=O)[C@H](CCC(=O)O)NC(=O)[C@H](C)NC(=O)[C@H](CC(C)C)NC(=O)[C@H](CCCNC(=N)N)NC(=O)CNC(=O)[C@@H](NC(=O)[C@H](C)NC(=O)[C@@H]1CSSC[C@H](NC(=O)[C@H](CCCNC(=N)N)NC(=O)CC[C@H](NC(=O)CCCCCCCCCCCCCCCCCCC(=O)O)C(=O)O)C(=O)N[C@@H](CO)C(=O)N[C@@H]([C@@H](C)O)C(=O)N[C@@H](C)C(=O)N[C@@H]([C@@H](C)O)C(=O)N1)[C@@H](C)O [Compound 132, [19CD]-isoGlu-RC()STATC()ATGRLAEFLHRSSSSF-Gly(Me)-A-Ile(Me)-LSSTEVGSETP-NH2] ({C20 diacid-γGlu}-RCSTATCATGRLAEFLHRSSSSF[Sar]A[NMeI]LSSTEVGSETP-NH2; disulfide 2-7) | –
2 | 0.3 | SS (SS indicates solubility ≥ 1mg/ml) | SS (SS indicates solubility ≥ 1mg/ml) | SS (SS indicates solubility ≥ 1mg/ml) | SS (SS indicates solubility ≥ 1mg/ml) | SS (SS indicates solubility ≥ 1mg/ml) | SS (SS indicates solubility ≥ 1mg/ml) | SS (SS indicates solubility ≥ 1mg/ml) | 0.36 | CC[C@H](C)[C@@H](C(=O)N[C@@H](CC(C)C)C(=O)N[C@@H](CO)C(=O)N[C@@H](CO)C(=O)N[C@H](C(=O)N[C@@H](CCC(=O)O)C(=O)N[C@H](C(=O)NCC(=O)N[C@@H](CO)C(=O)N[C@@H](CCC(=O)O)C(=O)N[C@H](C(=O)N1CCC[C@H]1C(N)=O)[C@@H](C)O)C(C)C)[C@@H](C)O)N(C)C(=O)[C@H](C)NC(=O)CN(C)C(=O)[C@H](Cc1ccccc1)NC(=O)[C@H](CO)NC(=O)[C@H](CO)NC(=O)[C@H](CO)NC(=O)[C@H](CO)NC(=O)[C@H](CCCNC(=N)N)NC(=O)[C@H](Cc1c[nH]cn1)NC(=O)[C@H](CC(C)C)NC(=O)[C@H](Cc1ccccc1)NC(=O)[C@H](CCC(=O)O)NC(=O)[C@H](C)NC(=O)[C@H](CC(C)C)NC(=O)[C@H](CCCNC(=N)N)NC(=O)[C@H](CO)NC(=O)[C@@H](NC(=O)[C@H](C)NC(=O)[C@@H]1CSSC[C@H](NC(=O)[C@H](CCCNC(=N)N)NC(=O)CC[C@H](NC(=O)CCCCCCCCCCCCCCCCCCC(=O)O)C(=O)O)C(=O)N[C@@H](CO)C(=O)N[C@@H]([C@@H](C)O)C(=O)N[C@@H](C)C(=O)N[C@@H]([C@@H](C)O)C(=O)N1)[C@@H](C)O [Compound 133, [19CD]-isoGlu-RC()STATC()ATSRLAEFLHRSSSSF-Gly(Me)-A-Ile(Me)-LSSTEVGSETP-NH2] ({C20 diacid-γGlu}-RCSTATCATSRLAEFLHRSSSSF[Sar]A[NMeI]LSSTEVGSETP-NH2; disulfide 2-7) | –
3 | 0.76 | SS (SS indicates solubility ≥ 1mg/ml) | SS (SS indicates solubility ≥ 1mg/ml) | SS (SS indicates solubility ≥ 1mg/ml) | SS (SS indicates solubility ≥ 1mg/ml) | SS (SS indicates solubility ≥ 1mg/ml) | SS (SS indicates solubility ≥ 1mg/ml) | SS (SS indicates solubility ≥ 1mg/ml) | 0.61 | CC[C@H](C)[C@@H](C(=O)N[C@@H](CC(C)C)C(=O)N[C@@H](CO)C(=O)N[C@@H](CO)C(=O)N[C@H](C(=O)N[C@@H](CCC(=O)O)C(=O)N[C@H](C(=O)NCC(=O)N[C@@H](CO)C(=O)N[C@@H](CCC(=O)O)C(=O)N[C@H](C(=O)N1CCC[C@H]1C(N)=O)[C@@H](C)O)C(C)C)[C@@H](C)O)N(C)C(=O)[C@H](C)NC(=O)CN(C)C(=O)[C@H](Cc1ccccc1)NC(=O)[C@H](CO)NC(=O)[C@H](CO)NC(=O)[C@H](CO)NC(=O)[C@H](CO)NC(=O)[C@H](CCCNC(=N)N)NC(=O)[C@H](Cc1c[nH]cn1)NC(=O)[C@H](CC(C)C)NC(=O)[C@H](Cc1ccccc1)NC(=O)[C@H](CCC(=O)O)NC(=O)[C@H](C)NC(=O)[C@H](CC(C)C)NC(=O)[C@H](CCCNC(=N)N)NC(=O)[C@H](CCC(=O)O)NC(=O)[C@@H](NC(=O)[C@H](C)NC(=O)[C@@H]1CSSC[C@H](NC(=O)[C@H](CCCNC(=N)N)NC(=O)CC[C@H](NC(=O)CCCCCCCCCCCCCCCCCCC(=O)O)C(=O)O)C(=O)N[C@@H](CO)C(=O)N[C@@H]([C@@H](C)O)C(=O)N[C@@H](C)C(=O)N[C@@H]([C@@H](C)O)C(=O)N1)[C@@H](C)O [Compound 135, [19CD]-isoGlu-RC()STATC()ATERLAEFLHRSSSSF-Gly(Me)-A-Ile(Me)-LSSTEVGSETP-NH2] ({C20 diacid-γGlu}-RCSTATCATERLAEFLHRSSSSF[Sar]A[NMeI]LSSTEVGSETP-NH2; disulfide 2-7) | –

Row | SMILES | EC50 [1] [nM] | Solubility, Acetate buffer pH 4 [3] | Solubility, Acetate buffer pH 5 [3] | Solubility, Histidine buffer pH 6 [3] | Solubility, Histidine buffer pH 7 [3] | Solubility, Phosphate buffer pH 6 [3] | Solubility, Phosphate buffer pH 7 [3] | Solubility, Phosphate buffer pH 7.5 [3] | EC50 [2, 4] [nM] | EC50 [2] [nM]
4 | CC[C@H](C)[C@@H](C(=O)N[C@@H](CC(C)C)C(=O)N[C@@H](CO)C(=O)N[C@@H](CO)C(=O)N[C@H](C(=O)N[C@@H](CCC(=O)O)C(=O)N[C@H](C(=O)NCC(=O)N[C@@H](CO)C(=O)N[C@@H](CCC(=O)O)C(=O)N[C@H](C(=O)N1CCC[C@H]1C(N)=O)[C@@H](C)O)C(C)C)[C@@H](C)O)N(C)C(=O)[C@H](C)NC(=O)CN(C)C(=O)[C@H](Cc1ccccc1)NC(=O)[C@H](CO)NC(=O)[C@H](CO)NC(=O)[C@H](CO)NC(=O)[C@H](CO)NC(=O)[C@H](CCCNC(=N)N)NC(=O)[C@H](Cc1c[nH]cn1)NC(=O)[C@H](CC(C)C)NC(=O)[C@H](Cc1ccccc1)NC(=O)[C@H](CCC(=O)O)NC(=O)[C@H](C)NC(=O)[C@H](CC(C)C)NC(=O)[C@H](CCCNC(=N)N)NC(=O)CNC(=O)[C@@H](NC(=O)[C@H](C)NC(=O)[C@@H]1CSSC[C@H](NC(=O)[C@H](CCCNC(=N)N)NC(=O)CC[C@H](NC(=O)CCCCCCCCCCCCCCCCCCC(=O)O)C(=O)O)C(=O)NCC(=O)N[C@@H]([C@@H](C)O)C(=O)N[C@@H](C)C(=O)N[C@@H]([C@@H](C)O)C(=O)N1)[C@@H](C)O [Compound 131, [19CD]-isoGlu-RC()GTATC()ATGRLAEFLHRSSSSF-Gly(Me)-A-Ile(Me)-LSSTEVGSETP-NH2] ({C20 diacid-γGlu}-RCGTATCATGRLAEFLHRSSSSF[Sar]A[NMeI]LSSTEVGSETP-NH2; disulfide 2-7) | 0.1 | SS (SS indicates solubility ≥ 1mg/ml) | SS (SS indicates solubility ≥ 1mg/ml) | SS (SS indicates solubility ≥ 1mg/ml) | SS (SS indicates solubility ≥ 1mg/ml) | SS (SS indicates solubility ≥ 1mg/ml) | SS (SS indicates solubility ≥ 1mg/ml) | SS (SS indicates solubility ≥ 1mg/ml) | – | 0.18
